Experimental data taken from patent publication US6649603B2, “Cyclylamine sulfonamides as β3-adrenergic receptor agonists” (Wyeth, priority 2000, dated 2003).

Columns and labels:
[1] = target: T1, human β3 adrenergic receptor (Homo sapiens, UniProt P13945); test: cAMP accumulation (SPA) in CHO cells transfected with human β3 adrenergic receptor; format: cell-based; conditions: for EC50 / beta-3 IA (maximal response relative to isoproterenol at 10^-5 M): CHO cells, cAMP; for EC50: 30 min incubation, read-out: beta-3 EC50; for beta-3 IA (maximal response relative to isoproterenol at 10^-5 M): fraction of maximal isoproterenol response
T1 construct: Full length β3 AR clones (402 amino acids) containing the last 6 amino acids of hβ3_AR are prepared; expressed in transfected cells; host or cells: CHO cells
Description: (§1) The ability of compounds of this invention to treat or inhibit disorders related to insulin resistance or hyperglycemia was established with representative compounds of this invention in the following standard pharmacological test procedures, which measured the binding selectivity to the β1, β2, and β3 adrenergic receptors. Binding to the receptors was measured in Chinese Hamster ovary (CHO) cells that were transfected with adrenergic receptors. The following briefly summarizes the procedures used and results obtained.
Cloning of Human β3-AR Genomic DNA: cDNA was constructed by ligating four polymerase chain reaction (PCR) products using the following primers: an ATG-NarI fragment, sense primer 5′-[…]3′ and anti-sense primer 5′[…]3′; a NarI-AccI fragment, 5′[…]3′ as sense and 5′[…]3′ as anti-sense primer; an Accli-Styl fragment, sense primer 5′[…]3′ and anti-sense primer 5′[…]3′ and a Styl-TAG fragment, with sense primer 5′[…]3′ and anti-sense primer 5′[…]3′. The corresponding primer sequences are described in Mantzoros, C. S., et.al., Diabetes 45: 909-914 (1996). The four fragments are ligated into a pUC 18 plasmid (Gibco-BRL) and sequenced. Full length β3 AR clones (402 amino acids) containing the last 6 amino acids of hβ3_AR are prepared with the β3-βARpcDNA3 from ATTC.
(§2) Binding Procedure: Clones expressing receptor levels of 70 to 110 fmoles/mg protein were used in the test procedures. CHO cells were grown in 24-well tissue culture plates in Dulbecco's Modified Eagle Media with 10% fetal bovine serum, MEM non-essential amino acids, Penicillin-Streptompycin and Geneticin. On the day of test procedure, growth medium was replaced with preincubation media (Dulbecco's Modified Eagle Media and incubated for 30 minutes at 37° C. Preincubation medium was replaced with 0.2 ml treatment medium containing DMEM media containing 250 μM IBMX (isobutyl-1-methylxantine) plus 1 mM ascorbic acid with test compound dissolved in DMSO. Test compounds were tested over a concentration range of 10^−9 M to 10^−5 M for β3 cells and 10^−8 to 10^−4 M for β1 and β2 transfected cells. Isoproterenol (10^−5 M) was used as an internal standard for comparison of activity. Cells were incubated at 37° C. on a rocker for 30 min with the β3 cells and 15 min for […]. Incubation was stopped with the addition of 0.2N HCl and neutralized with 2.5N NaOH. The plates, containing the cells and neutralized media, were stored at −20 degrees celsius until ready to test for cAMP using the SPA test kit (Amersham).
(§3) Data Analysis and Results: Data collected from the SPA test procedure were analyzed as per cent of the maximal isoproterenol response at 10^−5 M. Activity curves were plotted using the SAS statistical and graphics software. EC50 values were generated for each compound and the maximal response (IA) developed for each compound is compared to the maximal response of isoproternol at 10^−5 M from the following formula: [formula]

[2] = target: T2, human β2-adrenergic receptor (Homo sapiens, UniProt P07550); test: cAMP accumulation (SPA) in CHO cells transfected with human β2 adrenergic receptor; format: cell-based; conditions: for beta-2 IA (maximal response relative to isoproterenol at 10^-5 M): fraction of maximal isoproterenol response
T2 construct: expressed in transfected cells; host or cells: CHO cells
Description: as §1
(§4) Transfection of CHO cells with β1 and β2 adrenergic receptors: CHO cells were transfected with human β1- or β2-adrenergic receptors as described in Tate, K. M., Eur. J. Biochem., 196:357-361 (1991).
as §2, §3

[3] = target: T3, human β1-adrenergic receptor (Homo sapiens, UniProt P08588); test: cAMP accumulation (SPA) in CHO cells transfected with human β1 adrenergic receptor; format: cell-based; conditions: for beta-1 IA (maximal response relative to isoproterenol at 10^-5 M): fraction of maximal isoproterenol response
T3 construct: expressed in transfected cells; host or cells: CHO cells
Description: as §1, §4, §2, §3

T2 sequence (P07550 whole entry): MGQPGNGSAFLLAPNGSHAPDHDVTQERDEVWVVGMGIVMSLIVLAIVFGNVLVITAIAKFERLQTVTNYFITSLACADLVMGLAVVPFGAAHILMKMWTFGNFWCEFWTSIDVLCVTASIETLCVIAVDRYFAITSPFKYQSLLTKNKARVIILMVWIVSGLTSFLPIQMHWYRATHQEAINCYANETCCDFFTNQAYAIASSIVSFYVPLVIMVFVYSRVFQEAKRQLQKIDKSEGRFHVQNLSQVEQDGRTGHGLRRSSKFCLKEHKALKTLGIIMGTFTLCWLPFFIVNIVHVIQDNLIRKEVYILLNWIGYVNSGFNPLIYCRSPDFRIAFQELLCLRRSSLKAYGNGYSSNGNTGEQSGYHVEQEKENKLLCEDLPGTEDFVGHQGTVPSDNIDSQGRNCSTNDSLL
T1 sequence (P13945 whole entry): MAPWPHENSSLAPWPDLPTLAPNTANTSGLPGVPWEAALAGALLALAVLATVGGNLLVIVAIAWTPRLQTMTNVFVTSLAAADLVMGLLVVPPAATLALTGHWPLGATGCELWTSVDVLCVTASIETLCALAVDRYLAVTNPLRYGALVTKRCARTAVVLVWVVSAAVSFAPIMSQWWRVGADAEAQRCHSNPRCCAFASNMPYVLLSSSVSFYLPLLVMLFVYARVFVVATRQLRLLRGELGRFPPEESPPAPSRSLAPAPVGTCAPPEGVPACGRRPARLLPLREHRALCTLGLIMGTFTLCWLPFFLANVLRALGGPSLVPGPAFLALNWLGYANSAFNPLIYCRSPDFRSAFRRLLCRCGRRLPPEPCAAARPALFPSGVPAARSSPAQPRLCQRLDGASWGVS
T3 sequence (P08588 whole entry): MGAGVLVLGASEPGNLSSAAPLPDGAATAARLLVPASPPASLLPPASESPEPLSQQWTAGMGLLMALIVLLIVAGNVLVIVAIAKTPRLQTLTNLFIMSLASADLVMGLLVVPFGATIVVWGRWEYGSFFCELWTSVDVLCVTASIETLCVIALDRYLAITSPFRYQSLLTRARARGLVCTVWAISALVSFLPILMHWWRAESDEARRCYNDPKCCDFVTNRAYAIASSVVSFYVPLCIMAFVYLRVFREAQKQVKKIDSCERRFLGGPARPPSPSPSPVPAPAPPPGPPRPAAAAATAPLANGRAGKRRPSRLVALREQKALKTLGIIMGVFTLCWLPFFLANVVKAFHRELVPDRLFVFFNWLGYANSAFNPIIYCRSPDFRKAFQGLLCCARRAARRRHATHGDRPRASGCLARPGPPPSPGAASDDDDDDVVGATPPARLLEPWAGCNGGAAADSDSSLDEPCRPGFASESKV

Row | SMILES | EC50 [1] [nM] | beta-3 IA (maximal response relative to isoproterenol at 10^-5 M) [1] | melting point [°C] | beta-2 IA (maximal response relative to isoproterenol at 10^-5 M) [2] | EC50 ([2]; read-out: beta-2 EC50) [nM] | beta-1 IA (maximal response relative to isoproterenol at 10^-5 M) [3] | EC50 ([3]; read-out: beta-1 EC50) [nM] | beta-3 activity at single concentration ([1]; at 10 μM, per cent of maximal isoproterenol response) [% at 10 μM]
1 | CCCCOc1ccc(S(=O)(=O)N2CC(NC[C@H](O)COc3ccc(O)cc3)C2)cc1 [Example 1, 4-{(2S)-3-[1-(4-Butoxy-benzenesulfonyl)-azetidin-3-ylamino]-2-hydroxy-propoxy}-phenol] | 30 | 0.82 | 55 to 58 | 0.39 | 900 | 0.49 | 1600 | –
2 | O=c1[nH]c2cccc(OC[C@@H](O)CNC3CCN(S(=O)(=O)c4cccc5nsnc45)CC3)c2[nH]1 [Example 8, 4-{(2S)-3-[1-(Benzo[1,2,5]thiadiazole-4-sulfonyl)-piperidin-4-ylamino]-2-hydroxy-propoxy}-1,3-dihydro-benzoimidazol-2-one] | 800 | 0.75 | – | – | – | – | – | –
3 | CCCCOc1ccc(S(=O)(=O)N2CC(NCC(O)c3ccc(O)c(NS(C)(=O)=O)c3)C2)cc1 (stereo not shown) [Example 5, N-(5-{2-[1-(4-Butoxy-benzenesulfonyl)-azetidin-3-ylamino]-1-hydroxy-ethyl)-2-hydroxy-phenyl)-methanesulfonamide] | – | – | 67 to 70 | – | – | – | – | 78
4 | COc1ccc(S(=O)(=O)N2CCC(NC[C@H](O)COc3cccc4[nH]c5ccccc5c34)CC2)cc1 [Example 15, (2S)-1-(9H-Carbazol-4-yloxy)-3-[1-(4-methoxy-benzenesulfonyl)-piperidin-4-ylamino]-propan-2-ol] | 60 | 0.88 | – | (0.03) | – | (0.1) | – | –
5 | COc1ccc(S(=O)(=O)N2CCC(NC[C@H](O)COc3cccc4[nH]c5ccccc5c34)CC2)cc1OC [Example 21, (2S)-1-(9H-Carbazol-4-yloxy)-3-[1-(3,4-dimethoxy-benzenesulfonyl)-piperidin-4-ylamino]-propan-2-ol] | 20 | 1.2 | – | (0.02) | – | (0.1) | – | –
6 | CCCCOc1ccc(S(=O)(=O)N2CC(NCC(O)COc3cccc4[nH]c5ccccc5c34)C2)cc1 (stereo not shown) [Example 3, 1-[1-(4-Butoxy-benzenesulfonyl)-azetidin-3-ylamino]-3-(9H-carbazol-4-yloxy)-propan-2-ol] | – | – | 81 to 84 | – | – | – | – | –
7 | CCCCOc1ccc(S(=O)(=O)N2CCC(NCC(O)c3ccc(O)c(NS(C)(=O)=O)c3)C2)cc1 (stereo not shown) [Example 6, N-(5-{2-[1-(4-Butoxy-benzenesulfonyl)-pyrrolidin-3-ylamino]-1-hydroxy-ethyl}-2-hydroxy-phenyl)-methanesulfonamide] | – | – | 95 to 98 | – | – | – | – | –
8 | CS(=O)(=O)Nc1cc(C(O)CNC2CCN(S(=O)(=O)c3ccc4oc5ccccc5c4c3)CC2)ccc1O (stereo not shown) [Example 23, N-(5-(2-[1-(Dibenzofuran-2-sulfonyl)-piperidin-4-ylamino]-1-hydroxy-ethyl}-2-hydroxy-phenyl)-methanesulfonamide] | 100 | 0.88 | – | – | – | – | – | –
9 | CCCCOc1ccc(S(=O)(=O)N2CCC(NC[C@H](O)COc3cccc4[nH]c5ccccc5c34)C2)cc1 (stereo partly drawn) [Example 7, (2S)-1-[1-(4-Butoxy-benzenesulfonyl)-pyrrolidin-3-ylamino]-3-(9H-carbazol-4-yloxy)-propan-2-ol] | – | – | 118 to 119 | – | – | – | – | –
10 | COc1ccc(S(=O)(=O)N2CCC(NC[C@H](O)COc3cccc4[nH]c(=O)[nH]c34)CC2)cc1OC [Example 20, 4-{(2S)-3-[1-(3,4-Dimethoxy-benzenesulfonyl)-piperidin-4-ylamino]-2-hydroxy-propoxy}-1,3-dihydro-benzoimidazol-2-one] | 80 | 0.87 | – | (0.01) | – | (0.3) | – | –
11 | CCCCOc1ccc(S(=O)(=O)N2CCC(NC[C@H](O)COc3cccc4[nH]c(=O)[nH]c34)CC2)cc1 [Example 9, 4-((2S)-3-[1-(4-Butoxy-benzenesulfonyl)-piperidin-4-ylamino]-2-hydroxy-propoxy}-1,3-dihydro-benzoimidazol-2-one] | 500 | 0.8 | – | – | – | – | – | –
12 | CCCCOc1ccc(S(=O)(=O)N2CCC(NC[C@H](O)COc3cccc4[nH]c5ccccc5c34)CC2)cc1 [Example 14, (2S)-1-[1-(4-Butoxy-benzenesulfonyl)-piperidin-4-ylamino]-3-(9H-carbazol-4-yloxy)-propan-2-ol] | 850 | 0.74 | – | (0.07) | – | (0.04) | – | –
